Data reported in PubChem BioAssay AID2080 (NMMLSC, 2009).
Calls of active or inactive are those of the source. No rule for the calls is given here.

Biological target: Bcl-2-related protein A1 (Homo sapiens) (UniProt Q16548)
Experiment: Bfl-1/Bim complex disruptors – biochemical, multiplexed, bead-based flow cytometry, HTS hits, confirmation (AID 2080)
Conditions: Bim peptide-Bfl-1 binding

Sequence of Bcl-2-related protein A1 (Homo sapiens) (Q16548 whole entry, looked up): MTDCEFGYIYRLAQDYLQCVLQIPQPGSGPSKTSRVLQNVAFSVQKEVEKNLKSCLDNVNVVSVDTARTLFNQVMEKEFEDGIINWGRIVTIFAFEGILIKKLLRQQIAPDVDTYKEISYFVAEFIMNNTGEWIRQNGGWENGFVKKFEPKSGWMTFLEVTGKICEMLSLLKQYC

Compound	EC50 [µM]
COc1ccc(N2C(=O)C(Cl)=C(NC3C(=O)N(c4ccccc4)N(C)C3C)C2=O)cc1 (stereo not drawn)	1.24

Same assay, conditions: Bim peptide-Bfl-1 binding, at 100 µM (top of the series)

Compound	inhibition of binding
Cc1ccc(-c2cc(C(=O)Nc3nccs3)c3ccccc3n2)o1	inactive
Cc1ccc(-c2nc3c(c(=O)[nH]c(=O)n3Cc3ccccc3)n2C)o1	inactive
CCN(CC)C(=O)COC(=O)c1cc(-c2ccco2)nc2ccccc12	inactive
O=C1c2ccccc2C(=O)N1CN(C(=O)COc1ccc(Cl)cc1Cl)c1cccc(F)c1	inactive
Cc1ccc(C=NNC(=O)CSc2nnc(-c3ccc(Cl)cc3)n2-c2ccccc2)o1	inactive
COc1cc(CNc2ccc3[nH]c(=O)[nH]c3c2)cc(Br)c1OCC(=O)NC(C)(C)C	inactive
CCOc1ccccc1CNc1ccc(O)cc1	inactive
CCN(CC)c1ccc(NC(=O)COc2ccccc2C)cc1S(=O)(=O)Nc1ccccc1OC	inactive
CNC1CCC(Br)CC(C(=O)/C=C/c2cccc(OC)c2OC)C1=O (stereo not drawn)	inactive
O=c1c2c(n3nnnc3n1Cc1ccccc1)-c1ccccc1CC21CCCC1	inactive
O=C1NC(=O)C2(Cc3c(nc4ccccn4c3=O)N3CCCCCC32)C(=O)N1Cc1ccccc1 (stereo not drawn)	inactive
O=C(/C=C/c1ccc(-c2ccccc2[N+](=O)[O-])o1)c1ccccc1	inactive
